Here are results for two compounds from US20260091020A1, “TREATMENT OF ACUTE CANNABINOID OVERDOSE” (Anebulo Pharmaceuticals, Inc., priority 2022, published 2026).

Common to all, as to type: cell-based
For assay [1], the target named is T1, CB1 [CNR1] (Homo sapiens, UniProt P21554). Description: PathHunter GPCR Biosensor cAMP assay, CNR1 agonist mode. As to conditions: Gi cAMP, 20 μM Forskolin. On the procedure: (§1) Compounds 2 and 3 were evaluated for activity against CB1 [CNR1] and CB2 [CNR2], both as agonists or as antagonists using the PathHunter GPCR Biosensor (Eurofins Discovery X, Fremont CA). For agonist assays, data was normalized to the maximal and minimal response observed in the presence of control ligand and vehicle. For antagonist assays, data was normalized to the maximal and minimal response observed in the presence of EC80 ligand and vehicle. The following EC80 concentrations were used: CNR1 cAMP: 0.0012 μM CP55940; CNR2 cAMP: 0.0048 μM CP55940. For Gi cAMP assays, the following forskolin concentration was used: CNR1 cAMP: 20 μM Forskolin; CNR2 cAMP: 25 μM Forskolin.

Assay [2] addresses T2, CB2 [CNR2] (Homo sapiens, UniProt P34972). Kind of assay: PathHunter GPCR Biosensor cAMP assay, CNR2 agonist mode. Particulars: Gi cAMP, 25 μM Forskolin. On the procedure: as §1
The target in assay [3] is T2, CB2 [CNR2]. Description: PathHunter GPCR Biosensor cAMP assay, CNR2 antagonist mode. Particulars: Gi cAMP, 25 μM Forskolin; EC80 0.0048 μM CP55940. On the procedure: as §1
For assay [4], the target named is T1, CB1 [CNR1]. Description: PathHunter GPCR Biosensor cAMP assay, CNR1 antagonist mode. As to conditions: for IC50: Gi cAMP, 20 μM Forskolin, EC80 0.0012 μM CP55940; for CB1 vs CB2 selectivity and mode of action (in words): conclusion from Table 7. As for the experimental part: as §1

T1 sequence (P21554 whole entry): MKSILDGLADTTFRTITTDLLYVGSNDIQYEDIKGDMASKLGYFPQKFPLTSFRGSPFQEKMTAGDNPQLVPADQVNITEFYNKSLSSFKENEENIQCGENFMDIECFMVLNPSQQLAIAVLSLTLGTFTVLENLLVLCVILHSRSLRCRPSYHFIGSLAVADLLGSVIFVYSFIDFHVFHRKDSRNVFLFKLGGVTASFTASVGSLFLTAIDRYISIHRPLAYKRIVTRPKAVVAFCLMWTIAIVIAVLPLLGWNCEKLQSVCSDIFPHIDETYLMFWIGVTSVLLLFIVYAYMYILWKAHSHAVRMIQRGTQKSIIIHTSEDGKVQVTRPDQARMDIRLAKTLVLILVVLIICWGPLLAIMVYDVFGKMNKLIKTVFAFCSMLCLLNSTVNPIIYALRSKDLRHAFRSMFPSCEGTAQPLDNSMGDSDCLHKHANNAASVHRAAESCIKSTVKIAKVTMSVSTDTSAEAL
T2 sequence (P34972 whole entry): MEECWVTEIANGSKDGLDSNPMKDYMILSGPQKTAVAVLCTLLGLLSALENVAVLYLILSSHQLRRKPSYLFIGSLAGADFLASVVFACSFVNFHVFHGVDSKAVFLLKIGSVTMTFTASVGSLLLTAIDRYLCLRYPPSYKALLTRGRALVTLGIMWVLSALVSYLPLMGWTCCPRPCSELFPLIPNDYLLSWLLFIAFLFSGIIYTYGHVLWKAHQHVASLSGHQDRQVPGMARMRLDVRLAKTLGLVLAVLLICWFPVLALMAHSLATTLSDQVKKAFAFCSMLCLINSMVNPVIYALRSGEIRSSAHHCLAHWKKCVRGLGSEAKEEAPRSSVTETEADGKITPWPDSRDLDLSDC

On to `CC(C)(NC(=O)N1CC(OC(c2ccc(Cl)cc2)c2ccccc2C(F)(F)F)C1)C(=O)O` (stereo not shown) [Compound 3, 2-(3-((4-chlorophenyl)(2-(trifluoromethyl)phenyl)methoxy)azetidine-1-carboxamido)-2-methylpropanoic acid], for which the EC50 on CB1 [CNR1] [1] and on CB2 [CNR2] [2] was over 1000 nM in each case. Further, the figures for the 50% inhibitory concentration (IC50) against CB2 [CNR2] [3] and against CB1 [CNR1] [4] were over 1000 nM and 383 nM, respectively. Moreover, the “CB1 vs CB2 selectivity and mode of action (in words)” value at CB1 [CNR1] [4] was “selective CB1 antagonists”.

Regarding `CC(C)(CO)NC(=O)N1CC(OC(c2ccc(Cl)cc2)c2ccccc2C(F)(F)F)C1` (stereo not shown) [Compound 2, 3-((4-chlorophenyl)(2-(trifluoromethyl)phenyl)methoxy)-N-(1-hydroxy-2-methylpropan-2-yl)azetidine-1-carboxamide], the EC50 on CB1 [CNR1] [1] and on CB2 [CNR2] [2] was over 1000 nM in each case. In addition, the figures for the IC50 against CB2 [CNR2] [3] and against CB1 [CNR1] [4] were over 1000 nM and 45.6 nM, respectively. The “CB1 vs CB2 selectivity and mode of action (in words)” value on CB1 [CNR1] [4] was “selective CB1 antagonists”.
